From US11814392B2, “Chromenopyridine-based compounds and methods of making and use thereof” (Rosalind Franklin University of Medicine and Science, priority 2020, dated 2023)

Columns and labels:
A549/ATCC = assay: NCI 60 five-dose screening, A549/ATCC; assay type: cell-based, human; conditions: A549/ATCC (Non-small cell Lung), 48 h
[1] = system: 60 human cancer cell lines; assay: NCI 60 cell line assay, panel summary; assay type: cell-based; conditions: for GI50: Homo sapiens, 60 cell
[2] = system: 60 human cancer cell lines; assay: NCI 60 One-Dose Screen; assay type: cell-based
Text: The one-dose assay reported the growth relative to the no-drug control, and relative to the time zero number of cells. This allowed for the detection of both growth inhibition (values between 0 and 100) and lethality (values less than 0). For example, a value of 100 means no growth inhibition. A value of 40 would mean 60% growth inhibition. A value of 0 means no net growth over the course of the experiment. A value of −40 would mean 40% lethality. A value of −100 means all cells are dead.

SR = assay: NCI 60 five-dose screening, SR; conditions: Homo sapiens, 48 h
Experimental: (§1) The National Cancer Institute's Developmental Therapeutic preclinical 60 human cancer cell lines were used for an in vitro screen. […] The one-dose and five-dose experiments were conducted according to standard NCI protocols.
(§2) The human tumor cell lines of the cancer screening panel are grown in RPMI 1640 medium containing 5% fetal bovine serum and 2 mM L-glutamine. For a typical screening experiment, cells are inoculated into 96 well microtiter plates in 100 μL at plating densities ranging from 5,000 to 40,000 cells/well depending on the doubling time of individual cell lines. […]
(§3) Following drug addition, the plates are incubated for an additional 48 h at 37° C., 5% CO2, 95% air, and 100% relative humidity. […] Bound stain is subsequently solubilized with 10 mM trizma base, and the absorbance is read on an automated plate reader at a wavelength of 515 nm. […] Using the seven absorbance measurements [time zero, (Tz), control growth, (C), and test growth in the presence of drug at the five concentration levels (Ti)], the percentage growth is calculated at each of the drug concentrations levels. Percentage growth inhibition is calculated as: [(Ti−Tz)/(C−Tz)]×100 for concentrations for which Ti>/=Tz [(Ti−Tz)/Tz]×100 for concentrations for which Ti<Tz.
(§4) Three dose response parameters are calculated for each experimental agent. […]

KM12 = assay: NCI 60 five-dose screening, KM12
Experimental: as §1
(§5) The human tumor cell lines of the cancer screening panel are grown in RPMI 1640 medium containing 5% fetal bovine serum and 2 mM L-glutamine. For a typical screening experiment, cells are inoculated into 96 well microtiter plates in 100 μL at plating densities ranging from 5,000 to 40,000 cells/well depending on the doubling time of individual cell lines. After cell inoculation, the microtiter plates are incubated at 37° C., 5% CO2, 95% air and 100% relative humidity for 24 h prior to addition of experimental drugs.
(§6) After 24 h, two plates of each cell line are fixed in situ with TCA, to represent a measurement of the cell population for each cell line at the time of drug addition (Tz). […]
as §3
(§7) Three dose response parameters are calculated for each experimental agent. […] The drug concentration resulting in total growth inhibition (TGI) is calculated from Ti=Tz. […] Values are calculated for each of these three parameters if the level of activity is reached; however, if the effect is not reached or is exceeded, the value for that parameter is expressed as greater or less than the maximum or minimum concentration tested.

A498 = assay: NCI 60 five-dose screening, A498
Experimental: (§8) The one-dose and five-dose experiments were conducted according to standard NCI protocols.
as §5
(§9) After 24 h, two plates of each cell line are fixed in situ with TCA, to represent a measurement of the cell population for each cell line at the time of drug addition (Tz). Experimental drugs are solubilized in dimethyl sulfoxide at 400-fold the desired final maximum test concentration and stored frozen prior to use. […]
as §3, §7

ACHN = assay: NCI 60 five-dose screening, ACHN; conditions: 48 h
Experimental: as §8, §5, §9, §3, §7

K-562 = assay: NCI 60 five-dose screening, K-562; conditions: Homo sapiens, K562, 48 h
Experimental: as §1, §2, §3, §4

PC-3 = assay: NCI 60 five-dose screening, PC-3
Experimental: as §1, §5, §6, §3, §7

MCF7 = assay: NCI 60 five-dose screening, MCF7
Experimental: as §1, §5, §6, §3, §7

786.0 = assay: NCI 60 five-dose screening, 786.0
Experimental: as §8, §5, §9, §3, §7

T-47D = assay: NCI 60 five-dose screening, T-47D; conditions: 48 h
Experimental: as §1, §5, §6, §3, §7

HOP-62 = assay: NCI 60 five-dose screening, HOP-62
Experimental: as §8, §5, §9, §3, §7

HCT-15 = assay: NCI 60 five-dose screening, HCT-15
Experimental: as §1, §5, §6, §3, §7

SF-268 = assay: NCI 60 five-dose screening, SF-268
Experimental: as §1, §5, §6, §3, §7

SNB-19 = assay: NCI 60 five-dose screening, SNB-19
Experimental: as §1, §5, §6, §3, §7

SNB-75 = assay: NCI 60 five-dose screening, SNB-75
Experimental: as §1, §5, §6, §3, §7

CCRF-CEM = assay: NCI 60 five-dose screening, CCRF-CEM; conditions: Homo sapiens, 48 h
Experimental: as §1, §2, §3, §4

OVCAR-8 = assay: NCI 60 five-dose screening, OVCAR-8
Experimental: as §8, §5, §9, §3, §7

SK-OV-3 = assay: NCI 60 five-dose screening, SK-OV-3
Experimental: as §8, §5, §9, §3, §7

NCI-H522 = assay: NCI 60 five-dose screening, NCI-H522
Experimental: as §1, §5, §6, §3, §7

LOX IMVI = assay: NCI 60 five-dose screening, LOX IMVI; conditions: 48 h
Experimental: as §1, §5, §6, §3, §7

SK-MEL-5 = assay: NCI 60 five-dose screening, SK-MEL-5
Experimental: as §1, §5, §6, §3, §7

RPMI-8226 = assay: NCI 60 five-dose screening, RPMI-8226
Experimental: as §1, §5, §6, §3, §7

MDA-MB-231/ATCC = assay: NCI 60 five-dose screening, MDA-MB-231/ATCC
Experimental: as §1, §5, §6, §3, §7

## COc1ccc(SC2c3cc(OC)c(OC)cc3Oc3nc(N)c(C#N)c(N)c32)cc1 (stereo not drawn) [Compound 1, 2,4-diamino-7,8-dimethoxy-5-((4-methoxyphenyl)thio)-5H-chromeno[2,3-b]pyridine-3-carbonitrile]
A549/ATCC
  TGI: 3840 nM
A549/ATCC; Homo sapiens
  GI50: 2010 nM
[1]; at least one studied cell line of each of leukemia, colon cancer, CNS cancer, melanoma, ovarian cancer, renal cancer, and breast cancer
  GI50: < 1000 nM
[1]; every leukemia cell line studied
  GI50: < 500 nM
[1]; nine major cancer cell lines, initial single dose and five dose screening (FIG. 2, FIG. 3)
  anti-proliferative activity: anti-proliferative activity
[2]
  growth inhibition in the One-Dose Screen: significant growth inhibition
SR
  GI50: 270 nM
SR; read-out: LC50
  CC50: > 100000 nM
KM12; Homo sapiens, KM12, 48 h
  GI50: 1530 nM
KM12; Homo sapiens, KM12, 48 h, read-out: LC50
  CC50: 6060 nM
KM12; KM12 (Colon Cancer), five-dose, 48 h
  TGI: 3050 nM
A498; A498 (Renal Cancer), five-dose, 48 h
  TGI: 2850 nM
A498; Homo sapiens, A498, 48 h
  GI50: 1420 nM
A498; Homo sapiens, A498, 48 h, read-out: LC50
  CC50: 5730 nM
ACHN; ACHN (Renal Cancer), five-dose
  TGI: 3120 nM
ACHN; Homo sapiens, ACHN
  GI50: 1740 nM
ACHN; Homo sapiens, ACHN, read-out: LC50
  CC50: 5580 nM
K-562
  GI50: 440 nM
K-562; read-out: LC50
  CC50: > 100000 nM
PC-3; Homo sapiens, PC-3, 48 h
  GI50: 1160 nM
PC-3; Homo sapiens, PC-3, 48 h, read-out: LC50
  CC50: 5370 nM
PC-3; PC-3 (Prostate Cancer), five-dose, 48 h
  TGI: 2490 nM
MCF7; Homo sapiens, MCF7, 48 h
  GI50: 450 nM
MCF7; Homo sapiens, MCF7, 48 h, read-out: LC50
  CC50: 8470 nM
MCF7; MCF7 (Breast Cancer), five-dose, 48 h
  TGI: 2100 nM
786.0; 786.0 (Renal Cancer), five-dose, 48 h
  TGI: 1730 nM
786.0; Homo sapiens, 786-0, 48 h
  GI50: 490 nM
786.0; Homo sapiens, 786-0, 48 h, read-out: LC50
  CC50: 4200 nM
T-47D; Homo sapiens, T47D
  GI50: 1300 nM
T-47D; Homo sapiens, T47D, read-out: LC50
  CC50: 8430 nM
T-47D; T-47D (Breast Cancer), five-dose
  TGI: 3310 nM
HOP-62; HOP-62 (Non-small cell Lung), five-dose, 48 h
  TGI: 3090 nM
HOP-62; Homo sapiens, HOP-62, 48 h
  GI50: 1700 nM
HOP-62; Homo sapiens, HOP-62, 48 h, read-out: LC50
  CC50: 5610 nM
HCT-15; HCT-15 (Colon Cancer), five-dose, 48 h
  TGI: 2230 nM
HCT-15; Homo sapiens, HCT-15, 48 h
  GI50: 970 nM
HCT-15; Homo sapiens, HCT-15, 48 h, read-out: LC50
  CC50: 5020 nM
SF-268; Homo sapiens, SF-268, 48 h
  GI50: 1550 nM
SF-268; Homo sapiens, SF-268, 48 h, read-out: LC50
  CC50: 6050 nM
SF-268; SF-268 (CNS Cancer), five-dose, 48 h
  TGI: 3070 nM
SNB-19; Homo sapiens, SNB-19, 48 h
  GI50: 1320 nM
SNB-19; Homo sapiens, SNB-19, 48 h, read-out: LC50
  CC50: 5300 nM
SNB-19; SNB-19 (CNS Cancer), five-dose, 48 h
  TGI: 2640 nM
SNB-75; Homo sapiens, SNB-75, 48 h
  GI50: 1310 nM
SNB-75; Homo sapiens, SNB-75, 48 h, read-out: LC50
  CC50: 5240 nM
SNB-75; SNB-75 (CNS Cancer), five-dose, 48 h
  TGI: 2620 nM
CCRF-CEM
  GI50: 310 nM
CCRF-CEM; read-out: LC50
  CC50: > 100000 nM
OVCAR-8; Homo sapiens, OVCAR-8, 48 h
  GI50: 1690 nM
OVCAR-8; Homo sapiens, OVCAR-8, 48 h, read-out: LC50
  CC50: 5980 nM
OVCAR-8; OVCAR-8 (Ovarian Cancer), five-dose, 48 h
  TGI: 3180 nM
SK-OV-3; Homo sapiens, SK-OV-3, 48 h
  GI50: 1810 nM
SK-OV-3; Homo sapiens, SK-OV-3, 48 h, read-out: LC50
  CC50: 5660 nM
SK-OV-3; SK-OV-3 (Ovarian Cancer), five-dose, 48 h
  TGI: 3200 nM
NCI-H522; Homo sapiens, NCI-H522, 48 h
  GI50: 1370 nM
NCI-H522; Homo sapiens, NCI-H522, 48 h, read-out: LC50
  CC50: 5600 nM
NCI-H522; NCI-H522 (Non-small cell Lung), five-dose, 48 h
  TGI: 2770 nM
LOX IMVI; Homo sapiens, LOX IMVI
  GI50: 580 nM
LOX IMVI; Homo sapiens, LOX IMVI, read-out: LC50
  CC50: 4370 nM
LOX IMVI; LOX IMVI (Melanoma), five-dose
  TGI: 1860 nM
SK-MEL-5; Homo sapiens, SK-MEL-5, 48 h
  GI50: 1500 nM
SK-MEL-5; Homo sapiens, SK-MEL-5, 48 h, read-out: LC50
  CC50: 5330 nM
SK-MEL-5; SK-MEL-5 (Melanoma), five-dose, 48 h
  TGI: 2820 nM
RPMI-8226; Homo sapiens, RPMI-8226, 48 h
  GI50: 350 nM
RPMI-8226; Homo sapiens, RPMI-8226, 48 h, read-out: LC50
  CC50: > 100000 nM
RPMI-8226; RPMI-8226 (Leukemia), five-dose, 48 h
  TGI: 1810 nM
MDA-MB-231/ATCC; Homo sapiens, MDA-MB-231, 48 h
  GI50: 1430 nM
MDA-MB-231/ATCC; Homo sapiens, MDA-MB-231, 48 h, read-out: LC50
  CC50: 5510 nM
MDA-MB-231/ATCC; MDA-MB-231/ATCC (Breast Cancer), five-dose, 48 h
  TGI: 2810 nM
